“Also recorded” adds a separate entry of the source. Like-named read-outs stand apart in the source and are kept apart here. Positions of bridges follow the written chain, without caps; N, C: chain ends. Residues, ends and D or L forms follow the SMILES beside them. Chains are numbered I, II in the order given. *: point of attachment. Daunorubicin(13-NOCH2CO) = COc1cccc2c1C(=O)c1c(O)c3c(c(O)c1C2=O)C[C@@](O)(C(C)=NOCC(=O)*)C[C@@H]3O[C@H]1C[C@H](N)[C@H](O)[C@H](C)O1
Experiments:
[1] = 10% FBS (fetal bovine serum) containing complete cell culture medium (DMEM CM); conditions: 37 °C, up to 72 h
[2] = Rat liver lysosomal homogenate; conditions: 37 °C, up to 72 h
HT-29 cells = test: Cellular uptake by flow cytometry; type: cell-based, human; conditions: 10 μM, 6 h, 37 °C; for Cellular uptake in HT-29 compared with HT-1080 cells: flow cytometry, comparison of the two cell lines; for Cellular uptake by HT-29 cells: FBS containing medium, flow cytometry (Dau fluorescence)
Source text: (§1) Daunomycin is fluorescent therefore the cellular uptake of Dau containing conjugates can be followed by flow cytometry (Figure 2). The new conjugates were taken up by HT-29 cells in a higher amount than by HT-1080 cells. […] The low cytostatic/cytotoxic effects of conjugate 5 can be explained by the results of cellular uptake study.
(§2) Figure 2 (A) HT1080 and (B) HT-29 cells. Uptake of conjugate 1 (light green); 2 (red); 3 (light blue); 4 (pink); 5 (green); K (yellow). Empty control with purple color.
(§3) Analogous to the description in [17], prior to the treatment, HT-1080 and HT-29 cells were incubated overnight in cell culture medium (see above) followed by seeding at a 250.000 cells/well density. Peptide–drug conjugates were dissolved in FBS containing cell culture medium and added to the cells at 10 μM final concentration. After 6 h incubation at 37 °C the supernatant was removed, cells were washed with PBS and trypsinised with 0.1% trypsin (Gibco® by Life Technologies) for 10 minutes. Trypsinization was terminated with FBS containing medium, then cells were washed and suspended in serum free medium. For live/dead detection we used Zombie Violet reagent (Biolegend, San Diego CA). Samples were detected and analyzed by using an Attitude® Acoustic Focusing Cytometer (ThermoFischer Scientific).

[3] = Chemostability (Asn deamidation) of cyclic NGR peptide-daunomycin conjugates in complete cell culture medium; type: physicochemical; conditions: DMEM CM (10% FBS complete medium), 2% DMSO, 1 mg/mL, 37 °C, HPLC-MS, area under the curve
Procedure: The chemostability of cyclic NGR peptide–drug conjugates was studied under the treatment conditions used for the in vitro cytotoxicity experiments. Samples were taken at 0 min, 6 h and 72 h. The deamidation rate was evaluated by HPLC–MS. […] After 6 h, moderate rearrangement was observed which increased in time. However, 54–58% of the parent cyclic NGR conjugates were still intact after 72 h. […] Except deamidation no other decomposition could be observed during this study.
As described in [17] to check the chemical stability each of the drug conjugates were dissolved in DMSO (2% of the final volume), following the addition of 10% FBS (fetal bovine serum) containing complete cell culture medium (DMEM CM) up to the 1 mg/mL final concentration. Each conjugate was allowed to incubate at 37 °C. Samples were analyzed at experiment time of 0 h, 6 h and 72 h, respectively, and components were purified with Amicon Ultra Centrifugal Filters (cut off 10K Millipore). The membranes were washed with eluent A (HPLC), followed by 3 × 15 min centrifugation at 13000 rpm. The last step is the washing with eluent B (HPLC) 1 × 15 min, followed by lyophilization and concentration of the samples.

HT-1080 cells = test: Cellular uptake by flow cytometry; type: cell-based, human; conditions: 10 μM, 6 h, 37 °C, FBS containing medium; flow cytometry (Dau fluorescence)
Source text: as §1, §2, §3

[4] = tested on: CD13- HT-29 human colon adenocarcinoma cells; test: In vitro cytostatic/cytotoxic effect, PrestoBlue viability; type: cell-based
Source text: (§4) Similarly to our previous study the antitumor effects of conjugates were examined in vitro on CD13+ HT-1080 human fibrosarcoma and on CD13− HT-29 human colon adenocarcinoma cells. Both cell types are integrin receptor positive. The effect of the new drug conjugates was compared with the toxicity of free Dau and our lead compound Dau=Aoa-GFLGK(c[KNGRE]-GG)-NH2 (K). The bioconjugates enter cancer cells most likely by receptor-mediated endocytosis (at least at lower micromolar concentration) followed by the release of the active metabolite Dau=Aoa-Gly-OH by lysosomal degradation. In contrast, free Dau enters the cells in an unspecific manner which might explain the lower antitumor effect of conjugates in comparison with the free drug. In this experiment we measured the cytostatic effect (6 h treatment and further 66 h incubation after washing out the compounds) and the cytotoxic effect (72 h treatment). The results are summarized in (Table 3). […] It seems that the replacement of Lys by the hydrophilic amino acid Ser is not favorite. However, the incorporation of hydrophobic amino acids was well accepted. The conjugate with bulky side chain in this position (Leu) had higher IC50 values that might be explained by sterical hindrance. […] The Nle containing conjugate presented similar activity on HT-1080 and higher activity on HT-29 cells compared to the control conjugate. It is worth mentioning that Nle has a linear hydrocarbon side chain with the same length as Lys, the amino functional group missing. To further characterize the biological activity of the conjugates, their lysosomal degradation and cellular uptake were studied.
(§5) HT-1080 was maintained in DMEM while HT-29 cells in RPMI (Sigma-Aldrich), respectively, supplemented with 10% FBS, 5 mmol/L glutamine, and 50 units/mL penicillin and streptomycin (Life Technologies). As described in [17] cells were seeded in 5000 cells/well density in 100 μL medium followed by an overnight incubation. The next day 100 μL of serially diluted drugs were added to the cells. For the measurements of cytostatic effect, drug containing medium was gently removed from the plates after 6 h incubation, fresh medium was added to each wells, and the plates were further incubated for additional 66 h (72 h in total). In the case of cytotoxicity measurements, the drug containing medium was on the cells for the full period of the 72 h assay. At 72 h, supernatant was removed from the cells, and viability was assessed by the PrestoBlue® reagent (Life Technologies), which was diluted in PBS to reach the concentration given in the manufacturer’s instruction.

[5] = tested on: CD13+ HT-1080 human fibrosarcoma cells; test: as above; type: cell-based
Source text: as §4, §5

Molecule Dau=Aoa-GFLGK(c[CONH-KNGRE]-GG)-NH2 has a not cleaved [1] of 100% NGR form at 72 h.
With Dau=Aoa-GFLGK(c[CONH-LNGRE]-GG)-NH2 the cleaved bond [2] was “Gly-Phe, major, 6 h” and the fragment found [1] was “isoDGR, 6 h; also recorded: DGR, 72 h”.
For `COc1cccc2c1C(=O)c1c(O)c3c(c(O)c1C2=O)C[C@@](O)(C(C)=NOCC(=O)NCC(=O)N[C@@H](Cc1ccccc1)C(=O)N[C@@H](CC(C)C)C(=O)NCC(=O)N[C@@H](CCCCNC(=O)CNC(=O)CNC(=O)[C@@H]1CCC(=O)N[C@@H](CC(C)C)C(=O)N[C@@H](CC(N)=O)C(=O)NCC(=O)N[C@@H](CCCNC(=N)N)C(=O)N1)C(N)=O)C[C@@H]3O[C@H]1C[C@H](N)[C@H](O)[C@H](C)O1` [compound 2, Dau=Aoa-GFLGK(c[CONH-LNGRE]-GG)-NH2], the “Cellular uptake in HT-29 compared with HT-1080 cells” value (HT-29 cells) was “significantly higher accumulation in HT-29 than in HT-1080 cells”.
For `COc1cccc2c1C(=O)c1c(O)c3c(c(O)c1C2=O)C[C@@](O)(C(C)=NOCC(=O)NCC(=O)N[C@@H](Cc1ccccc1)C(=O)N[C@@H](CC(C)C)C(=O)NCC(=O)N[C@@H](CCCCNC(=O)CNC(=O)CNC(=O)[C@@H]1CCC(=O)N2CCC[C@H]2C(=O)N[C@@H](CC(N)=O)C(=O)NCC(=O)N[C@@H](CCCNC(=N)N)C(=O)N1)C(N)=O)C[C@@H]3O[C@H]1C[C@H](N)[C@H](O)[C@H](C)O1` [compound 4, Dau=Aoa-GFLGK(c[CONH-PNGRE]-GG)-NH2] (I: PNGREGG / II: {Daunorubicin(13-NOCH2CO)}-GFLGK-NH2; amide I:C-II:5; lactam I:N-I:5), the “Ratio of Asn-/Asp-/isoAsp-derivatives: DGR” value ([3]; 6 h) was 14%, the “Ratio of Asn-/Asp-/isoAsp-derivatives: isoDGR” value ([3]; 6 h) was 13% and the “Ratio of Asn-/Asp-/isoAsp-derivatives: NGR” value ([3]; 6 h, % printed in b14 only) was 73%. The “Ratio of Asn-/Asp-/isoAsp-derivatives: DGR” value ([3]; 72 h) was 46%, the “Ratio of Asn-/Asp-/isoAsp-derivatives: NGR” value ([3]; 72 h) was 19% and the “Ratio of Asn-/Asp-/isoAsp-derivatives: isoDGR” value ([3]; 72 h) was 35%. For the same molecule, the “Cellular uptake by HT-29 cells” value (HT-29 cells) was “highest uptake”, the “Cellular uptake in HT-29 compared with HT-1080 cells” value (HT-29 cells) was “significantly higher accumulation in HT-29 than in HT-1080 cells” and the “Cellular uptake by HT-1080 cells” value (HT-1080 cells) was “highest uptake”.
In the case of Dau=Aoa-GFLGK(c[CONH-NleNGRE]-GG)-NH2, the cleaved bond [2] is reported as “Gly-Phe, major, 6 h” and the fragment found [1] is reported as “isoDGR, 6 h; also recorded: DGR, 6 h”.
For Dau=Aoa-GFLGK(c[CONH-ANGRE]-GG)-NH2, the cleaved bond [2] was “Gly-Phe, major, 6 h” and the fragment found [1] was “isoDGR, 6 h; also recorded: DGR, 72 h”.
With `COc1cccc2c1C(=O)c1c(O)c3c(c(O)c1C2=O)C[C@@](O)(C(C)=NOCC(=O)NCC(=O)N[C@@H](Cc1ccccc1)C(=O)N[C@@H](CC(C)C)C(=O)NCC(=O)N[C@@H](CCCCNC(=O)CNC(=O)CNC(=O)[C@@H]1CCC(=O)N[C@@H](CO)C(=O)N[C@@H](CC(N)=O)C(=O)NCC(=O)N[C@@H](CCCNC(=N)N)C(=O)N1)C(N)=O)C[C@@H]3O[C@H]1C[C@H](N)[C@H](O)[C@H](C)O1` [compound 5, Dau=Aoa-GFLGK(c[CONH-SNGRE]-GG)-NH2] the “Cellular uptake by HT-29 cells” value (HT-29 cells) was “slightly higher cellular uptake” and the “Cellular uptake by HT-1080 cells” value (HT-1080 cells) was “did not enter”.
In the case of Dau=Aoa-GFLGK(c[CONH-PNGRE]-GG)-NH2, the cleaved bond [2] is reported as “Gly-Phe, major, 6 h” and the fragment found [1] is reported as “isoDGR, 6 h; also recorded: DGR, 6 h”.
In the case of `COc1cccc2c1C(=O)c1c(O)c3c(c(O)c1C2=O)C[C@@](O)(C(C)=O)C[C@@H]3O[C@H]1C[C@H](N)[C@H](O)[C@H](C)O1` [Daunomycin], the IC50 ([4]; HT-29, 72 h, read-out: HT-29 (72 h) IC50) is reported as 100 ± 100 nM, the IC50 ([4]; HT-29, read-out: HT-29 (6 h) IC50) is reported as 300 ± 200 nM and the IC50 ([5]; HT-1080, 72 h, read-out: HT-1080 (72 h) IC50) is reported as 500 ± 200 nM. For the same molecule, the IC50 ([5]; HT-1080, read-out: HT-1080 (6 h) IC50) was 1400 ± 600 nM.
With Dau=Aoa-GFLGK(c[CONH-SNGRE]-GG)-NH2 the cleaved bond [2] was “Gly-Phe, major, 6 h” and the fragment found [1] was “DGR, 72 h; also recorded: isoDGR, 6 h”.

Reference: publication PMC5942373 (Beilstein Journal of Organic Chemistry, 2018)
